Activity calls are given as the source filed them. No cut-off for these calls is given here.
Tests used:
[1] = target: T1, 5-hydroxytryptamine receptor 2A (Homo sapiens, UniProt P28223); test: Inhibition of 5-HT2AR (unknown origin ) assessed as inhibition constant
[2] = target: T1, 5-hydroxytryptamine receptor 2A; test: Inhibition of [125I](+/-)DOI binding to 5-HT2AR (unknown origin ) expressed in HEK293 cells at 10 uM by scintillation counter analysis; type: cell-based
[3] = target: T1, 5-hydroxytryptamine receptor 2A; test: Inhibition of [125I](+/-)DOI binding to 5-HT2AR (unknown origin ) expressed in HEK293 cells assessed as inhibition constant by scintillation counter analysis; type: cell-based
[4] = target: 5-hydroxytryptamine receptor 2B (Homo sapiens, UniProt P41595); test: Inhibition of [125I](+/-)DOI binding to 5-HT2BR (unknown origin ) expressed in CHO cells assessed as inhibition constant by scintillation counter analysis; type: cell-based
5-hydroxytryptamine receptor 2B, sequence (P41595 whole entry): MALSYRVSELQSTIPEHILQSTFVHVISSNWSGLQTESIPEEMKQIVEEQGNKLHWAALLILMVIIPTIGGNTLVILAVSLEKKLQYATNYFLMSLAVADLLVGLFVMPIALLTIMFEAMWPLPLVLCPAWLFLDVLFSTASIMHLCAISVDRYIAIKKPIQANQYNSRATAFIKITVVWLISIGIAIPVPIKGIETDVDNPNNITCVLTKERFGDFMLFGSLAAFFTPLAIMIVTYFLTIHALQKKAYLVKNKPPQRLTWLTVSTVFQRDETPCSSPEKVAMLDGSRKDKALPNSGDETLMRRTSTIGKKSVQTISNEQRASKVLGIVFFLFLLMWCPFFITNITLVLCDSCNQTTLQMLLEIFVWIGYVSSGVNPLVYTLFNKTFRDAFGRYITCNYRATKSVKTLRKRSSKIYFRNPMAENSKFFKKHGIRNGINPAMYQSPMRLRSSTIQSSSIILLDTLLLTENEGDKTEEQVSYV

T1 sequence (P28223 whole entry): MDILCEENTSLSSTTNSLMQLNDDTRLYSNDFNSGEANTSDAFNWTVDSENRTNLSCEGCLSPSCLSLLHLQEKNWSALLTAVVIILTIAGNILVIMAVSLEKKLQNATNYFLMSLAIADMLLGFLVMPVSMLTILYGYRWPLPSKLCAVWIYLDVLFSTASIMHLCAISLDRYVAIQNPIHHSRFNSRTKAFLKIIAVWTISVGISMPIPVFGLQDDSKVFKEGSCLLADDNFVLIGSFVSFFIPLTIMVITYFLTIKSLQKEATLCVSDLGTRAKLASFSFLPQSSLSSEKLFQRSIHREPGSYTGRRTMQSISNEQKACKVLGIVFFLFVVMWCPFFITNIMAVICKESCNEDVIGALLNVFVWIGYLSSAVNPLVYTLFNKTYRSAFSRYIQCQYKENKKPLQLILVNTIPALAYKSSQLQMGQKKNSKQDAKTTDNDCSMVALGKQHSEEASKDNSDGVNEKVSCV

## CN(C)CCc1c[nH]c2cccc(OP(=O)(O)O)c12 [PSILOCYBIN]
[1]
  Ki: > 10000 nM

## CCOP(=O)(OCC)c1cccc2[nH]cc(CCN(C)C)c12
[2]
  inhibition: Active

## CCOP(=O)(OCC)c1ccc2[nH]cc(CCN(C)C)c2c1
[3]
  Ki: 620 nM
[2]
  inhibition: Active
[4]
  Ki: 140 nM

Source: ChEMBL document CHEMBL5344480 (RSC Med Chem, 2024)
